Data reported in ChEMBL document CHEMBL5036318, “Synthesis and Biological Evaluation of Phosphoester and Phosphorothioate Prodrugs of STING Agonist 3',3'-c-Di(2'F,2'dAMP)” (J Med Chem, 2021).
pEC50: −log10 of the molar value.

How the values were obtained:
[1] = molecular target: T1, Stimulator of interferon genes protein (Homo sapiens, UniProt Q86WV6); assay: Potency index, ratio of test compound EC50 to prodrug EC50 for activation of wild-type human STING expressed in HEK293T cells co-expressing IRF3-activated ISRE assessed as IRF3 reporter activation measured after 30 mins by luciferase reporter gene assay; assay type: cell-based
T1 sequence (Q86WV6 whole entry): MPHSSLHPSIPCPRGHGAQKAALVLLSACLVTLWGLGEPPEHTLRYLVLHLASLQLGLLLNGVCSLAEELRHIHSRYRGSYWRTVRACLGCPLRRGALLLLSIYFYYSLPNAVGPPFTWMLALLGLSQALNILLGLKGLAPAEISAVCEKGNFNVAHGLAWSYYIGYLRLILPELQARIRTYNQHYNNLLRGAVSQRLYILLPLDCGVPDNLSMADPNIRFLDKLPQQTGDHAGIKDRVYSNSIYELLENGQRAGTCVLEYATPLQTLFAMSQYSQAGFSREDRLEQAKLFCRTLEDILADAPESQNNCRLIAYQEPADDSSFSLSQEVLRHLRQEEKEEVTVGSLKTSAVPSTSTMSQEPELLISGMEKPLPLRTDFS

[2] = Induction of TNF-alpha production in healthy human PBMC incubated for 16 hrs; assay type: functional, tissue-based
[3] = molecular target: T1, Stimulator of interferon genes protein; assay: Potency index, ratio of test compound EC50 to prodrug EC50 for activation of wild-type human STING expressed in digitonin treated THP1-Dual cells co-expressing IRF3-activated ISRE assessed as IRF3 reporter activation measured after 7 hrs by luciferase reporter gene assay; assay type: cell-based
[4] = Potency index, ratio of test compound EC50 to prodrug EC50 for induction of INF-alpha production in healthy human PBMC incubated for 16 hrs; assay type: functional
[5] = Induction of INF-gamma production in healthy human PBMC incubated for 16 hrs; assay type: functional, tissue-based
[6] = molecular target: T1, Stimulator of interferon genes protein; assay: Activation of wild-type human STING expressed in human THP1-Dual cells co-expressing IRF3-activated ISRE assessed as IRF3 reporter activation measured after 7 hrs by luciferase reporter gene assay; assay type: cell-based
[7] = Induction of INF-alpha production in healthy human PBMC incubated for 16 hrs; assay type: functional, tissue-based
[8] = molecular target: T1, Stimulator of interferon genes protein; assay: Potency index, ratio of test compound EC50 to prodrug EC50 for activation of wild-type human STING expressed in HEK293T cells co-expressing IRF3-activated ISRE assessed as IRF3 reporter activation measured after 7 hrs by luciferase reporter gene assay; assay type: cell-based
[9] = Potency index, ratio of test compound EC50 to prodrug EC50 for induction of TNF-alpha production in healthy human PBMC incubated for 16 hrs; assay type: functional
[10] = molecular target: T1, Stimulator of interferon genes protein; assay: Activation of wild-type human STING expressed in HEK293T cells co-expressing IRF3-activated ISRE assessed as IRF3 reporter activation measured after 30 mins by luciferase reporter gene assay; assay type: cell-based
[11] = molecular target: T1, Stimulator of interferon genes protein; assay: Activation of wild-type human STING expressed in HEK293T cells co-expressing IRF3-activated ISRE assessed as IRF3 reporter activation measured after 7 hrs by luciferase reporter gene assay; assay type: cell-based
[12] = Potency index, ratio of test compound EC50 to prodrug EC50 for induction of INF-gamma production in healthy human PBMC incubated for 16 hrs; assay type: functional
[13] = molecular target: T1, Stimulator of interferon genes protein; assay: Activation of wild-type human STING expressed in digitonin treated human THP1-Dual cells co-expressing IRF3-activated ISRE assessed as IRF3 reporter activation measured after 30 mins by luciferase reporter gene assay; assay type: cell-based
[14] = molecular target: T1, Stimulator of interferon genes protein; assay: Potency index, ratio of test compound EC50 to prodrug EC50 for activation of wild-type human STING expressed in human THP1-Dual cells co-expressing IRF3-activated ISRE assessed as IRF3 reporter activation measured after 30 mins by luciferase reporter gene assay; assay type: cell-based
[15] = Activation of human STING Q mutant expressed in digitonin treated HEK293T cells co-expressing IRF3-activated ISRE assessed as IRF3 reporter activation by luciferase reporter gene assay; assay type: cell-based; conditions: HEK-293T
cells = conditions: Homo sapiens, HEK-293T
Description: Activation of human STING REF mutant expressed in digitonin treated HEK293T cells co-expressing IRF3-activated ISRE assessed as IRF3 reporter activation by luciferase reporter gene assay

[16] = molecular target: Stimulator of interferon genes protein (Homo sapiens, UniProt Q86WV6, G230A/R293Q); assay: Activation of human STING QA mutant expressed in digitonin treated HEK293T cells co-expressing IRF3-activated ISRE assessed as IRF3 reporter activation by luciferase reporter gene assay; assay type: cell-based
Chain of Stimulator of interferon genes protein (Homo sapiens, UniProt Q86WV6, G230A/R293Q) (Q86WV6 whole entry G230A/R293Q): as the sequence (Q86WV6 whole entry) above, with G230A, R293Q counted along it

[17] = molecular target: Stimulator of interferon genes protein (Homo sapiens, UniProt Q86WV6, G230A/R293Q/R71H); assay: Activation of human STING HAQ mutant expressed in digitonin treated HEK293T cells co-expressing IRF3-activated ISRE assessed as IRF3 reporter activation by luciferase reporter gene assay; assay type: cell-based
Chain of Stimulator of interferon genes protein (Homo sapiens, UniProt Q86WV6, G230A/R293Q/R71H) (Q86WV6 whole entry R71H/G230A/R293Q): as the sequence (Q86WV6 whole entry) above, with R71H, G230A, R293Q counted along it

[18] = molecular target: T1, Stimulator of interferon genes protein; assay: Activation of wild-type human STING expressed in digitonin treated HEK293T cells co-expressing IRF3-activated ISRE assessed as IRF3 reporter activation by luciferase reporter gene assay; assay type: cell-based

| SMILES | Ratio EC50 [1] | pEC50 [2] | Ratio EC50 [3] | Ratio EC50 [4] | pEC50 [5] | pEC50 [6] | pEC50 [7] | Ratio EC50 [8] | Ratio EC50 [9] | pEC50 [10] | pEC50 [11] | Ratio EC50 [12] | pEC50 [13] | Ratio EC50 [14] | pEC50 [15] | pEC50 (cells) | pEC50 [16] | pEC50 [17] | pEC50 [18] |
| --- | --- | --- | --- | --- | --- | --- | --- | --- | --- | --- | --- | --- | --- | --- | --- | --- | --- | --- | --- |
| CC(C)(C)C(=O)OCS[P@]1(=O)OC[C@H]2O[C@@H](n3cnc4c(N)ncnc43)[C@H](F)[C@@H]2O[P@](=O)(SCOC(=O)C(C)(C)C)OC[C@H]2O[C@@H](n3cnc4c(N)ncnc43)[C@H](F)[C@@H]2O1 | 38 | 7.00 | 15 | 301 | 7.05 | 7.70 | 6.89 | 10 | 93 | 6.74 | 6.92 | 68 | 7.22 | 55 |  |  |  |  |  |
| Nc1nc2c(ncn2[C@@H]2O[C@@H]3COP(=O)(O)O[C@H]4[C@@H](O)[C@H](n5cnc6c(=O)[nH]c(N)nc65)O[C@@H]4COP(=O)(O)O[C@H]3[C@H]2O)c(=O)[nH]1 |  |  |  |  |  |  |  |  |  |  |  |  |  |  | < 4.35 | 5.08 |  |  |  |
| CC(C)OC(=O)OCO[P@]1(=O)OC[C@H]2O[C@@H](n3cnc4c(N)ncnc43)[C@H](F)[C@@H]2OP(=O)(O)OC[C@H]2O[C@@H](n3cnc4c(N)ncnc43)[C@H](F)[C@@H]2O1 | 50 |  | 5 |  |  | 6.70 |  | 25 |  | 5.71 | 6.49 |  | 5.77 | 11 |  |  |  |  |  |
| CCC(CC)C(=O)OCO[P@@]1(=O)OC[C@H]2O[C@@H](n3cnc4c(N)ncnc43)[C@H](F)[C@@H]2O[P@](=O)(OCOC(=O)C(CC)CC)OC[C@H]2O[C@@H](n3cnc4c(N)ncnc43)[C@H](F)[C@@H]2O1 |  | 7.15 |  | 195 | 7.52 | 7.30 | 6.59 |  | 432 | 6.64 | 7.52 | 285 | 6.46 |  |  |  |  |  |  |
| CCC(CC)C(=O)OCO[P@]1(=O)OC[C@H]2O[C@@H](n3cnc4c(N)ncnc43)[C@H](F)[C@@H]2O[P@](=O)(OCOC(=O)C(CC)CC)OC[C@H]2O[C@@H](n3cnc4c(N)ncnc43)[C@H](F)[C@@H]2O1 |  | 7.70 |  | 985 | 8.40 | 7.70 | 7.30 |  | 1485 | 7.15 | 8.00 | 2135 | 6.96 |  |  |  |  |  |  |
| CC(C)(C)C(=O)OCS[P@@]1(=O)OC[C@H]2O[C@@H](n3cnc4c(N)ncnc43)[C@H](F)[C@@H]2O[P@](=O)(SCOC(=O)C(C)(C)C)OC[C@H]2O[C@@H](n3cnc4c(N)ncnc43)[C@H](F)[C@@H]2O1 | 14 | 7.00 | 18 | 260 | 7.30 | 7.70 | 7.15 | 3 | 82 | 7.40 | 7.40 | 222 | 7.52 | 94 |  |  |  |  |  |
| Nc1ncnc2c1ncn2[C@@H]1O[C@@H]2CO[P@@](=O)(OCOC(=O)c3ccccc3)O[C@H]3[C@@H](F)[C@H](n4cnc5c(N)ncnc54)O[C@@H]3CO[P@](=O)(OCOC(=O)c3ccccc3)O[C@H]2[C@H]1F |  | 6.64 |  |  | 7.52 | 7.40 | 6.15 |  |  |  | 7.40 |  | 6.48 |  |  |  |  |  |  |
| CC(C)OC(=O)OCO[P@]1(=O)OC[C@H]2O[C@@H](n3cnc4c(N)ncnc43)[C@H](F)[C@@H]2O[P@](=O)(OCOC(=O)OC(C)C)OC[C@H]2O[C@@H](n3cnc4c(N)ncnc43)[C@H](F)[C@@H]2O1 |  | 6.46 |  | 414 | 6.80 | 7.52 | 6.44 |  | 90 | 6.51 | 7.52 | 51 | 6.42 |  |  |  |  |  |  |
| CC(C)OC(=O)OCO[P@@]1(=O)OC[C@H]2O[C@@H](n3cnc4c(N)ncnc43)[C@H](F)[C@@H]2O[P@](=O)(OCOC(=O)OC(C)C)OC[C@H]2O[C@@H](n3cnc4c(N)ncnc43)[C@H](F)[C@@H]2O1 |  | 6.15 |  | 40 | 5.83 | 6.96 | 5.89 |  | 45 | 6.03 | 6.77 | 6 | 6.01 |  |  |  |  |  |  |
| Nc1ncnc2c1ncn2[C@@H]1O[C@@H]2COP(=O)(O)O[C@H]3[C@@H](O)[C@H](n4cnc5c(N)ncnc54)O[C@@H]3COP(=O)(O)O[C@H]2[C@H]1O |  |  |  |  |  |  |  |  |  |  |  |  |  |  | 5.15 |  | 6.77 | 6.72 |  |
| CC(C)(C)C(=O)OCO[P@]1(=O)OC[C@H]2O[C@@H](n3cnc4c(N)ncnc43)[C@H](F)[C@@H]2OP(=O)(O)OC[C@H]2O[C@@H](n3cnc4c(N)ncnc43)[C@H](F)[C@@H]2O1 | 212 |  | 6 |  |  | 6.74 |  | 61 |  | 6.34 | 6.89 |  | 6.30 | 38 |  |  |  |  |  |
| Nc1ncnc2c1ncn2[C@@H]1O[C@@H]2COP(=O)(O)O[C@H]3[C@@H](F)[C@H](n4cnc5c(N)ncnc54)O[C@@H]3COP(=O)(O)O[C@H]2[C@H]1F |  | 4.89 |  |  | 5.08 | 5.99 | 4.29 |  |  | 4.02 | 5.10 |  | 4.72 |  | 6.85 | 6.74 |  | 6.89 | 7.70 |
| Nc1ncnc2c1ncn2[C@@H]1O[C@@H]2CO[P@@](=O)(OCOC(=O)c3ccccc3)O[C@H]3[C@@H](F)[C@H](n4cnc5c(N)ncnc54)O[C@@H]3COP(=O)(O)O[C@H]2[C@H]1F | 31 |  | 4 |  |  | 6.57 |  | 20 |  | 5.51 | 6.40 |  | 5.76 | 11 |  |  |  |  |  |
| Nc1nc2c(ncn2[C@@H]2O[C@@H]3COP(=O)(O)O[C@H]4[C@@H](O)[C@H](n5cnc6c(N)ncnc65)O[C@@H]4COP(=O)(O)O[C@H]3[C@H]2O)c(=O)[nH]1 |  | < 3.52 |  |  | 4.82 |  | 4.57 |  |  |  |  |  |  |  |  | 5.37 |  |  |  |
| CC(C)(C)C(=O)OCS[P@@]1(=O)OC[C@H]2O[C@@H](n3cnc4c(N)ncnc43)[C@H](F)[C@@H]2O[P@@](=O)(SCOC(=O)C(C)(C)C)OC[C@H]2O[C@@H](n3cnc4c(N)ncnc43)[C@H](F)[C@@H]2O1 | 62 | 6.74 | 159 | 41 | 5.92 | 7.30 | 6.14 | 23 | 146 | 7.40 | 7.15 | 8 | 7.10 | 152 |  |  |  |  |  |
| Nc1nc2c(ncn2[C@@H]2O[C@@H]3COP(=O)(O)O[C@@H]4[C@H](O)[C@@H](COP(=O)(O)O[C@@H]2[C@@H]3O)O[C@H]4n2cnc3c(N)ncnc32)c(=O)[nH]1 |  | 4.14 |  |  | 4.94 | 5.58 | 4.76 |  |  | 4.07 | 4.93 |  | 4.55 |  | 6.77 |  |  |  |  |
| CCC(CC)C(=O)OCO[P@]1(=O)OC[C@H]2O[C@@H](n3cnc4c(N)ncnc43)[C@H](F)[C@@H]2OP(=O)(O)OC[C@H]2O[C@@H](n3cnc4c(N)ncnc43)[C@H](F)[C@@H]2O1 | 71 |  | 7 |  |  | 6.82 |  | 18 |  | 5.87 | 6.35 |  | 6.01 | 20 |  |  |  |  |  |
